Source: the supplement of paper PMC12137928
Structures can show the parent of a compound that is named as a salt.

Test system: HCT116
Details: 72 h
Procedure, shortened: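 HCT116 cells were seeded at 250 per well in 1536-well plates with 5 h allowed for attachment. CellTiter-Glo luminescence was normalized against vehicle (0%) and positive control (-100%) before pattern correction. The IC50 and maximal efficacy figures derive from four-parameter Hill fits.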

Row | IC50 cell viability (ICRF193 0 nM) [µM] | IC50 cell viability (ICRF193 200 nM) [µM] | SMILES
1 | > 45.8 | > 45.8 | O=C1OC2(c3ccccc31)c1cc(I)c(O)c(I)c1Oc1c2cc(I)c(O)c1I [Erythrosin B]
2 | > 45.8 | > 45.8 | CC(=O)O[C@H]1Cc2ccccc2N(C(N)=O)c2ccccc21 [Eslicarbazepine (acetate)]
3 | > 45.8 | > 45.8 | COC(=O)CCc1ccc(OCC(O)CNC(C)C)cc1 (configuration not stated) [Esmolol hydrochloride]
4 | > 45.8 | > 45.8 | CC(=O)SCC(CC(=O)c1ccc(C)cc1)C(=O)O (configuration not stated) [Esonarimod]
5 | > 45.8 | > 45.8 | C[C@]12CC[C@@H]3c4ccc(O)cc4CC[C@H]3[C@@H]1CC[C@@H]2OC(=O)CCC1CCCC1 [Estradiol cypionate]
6 | > 45.8 | > 45.8 | CCCCCCC(=O)O[C@H]1CC[C@H]2[C@@H]3CCc4cc(O)ccc4[C@H]3CC[C@]12C [Estradiol enanthate]
7 | > 45.8 | > 45.8 | CC(=O)O[C@@H]1C[C@H]2[C@@H]3CCc4cc(OC(=O)c5ccccc5)ccc4[C@H]3CC[C@]2(C)[C@H]1OC(C)=O [Estriol benzoate diacetate]
8 | > 45.8 | > 45.8 | CCC(=O)Oc1ccc2c(c1)CC[C@@H]1[C@@H]2CC[C@@]2(C)[C@H]1C[C@@H](OC(=O)CC)[C@@H]2OC(=O)CC [Estriol tripropionate]
9 | > 45.8 | > 45.8 | C[C@]12CC[C@@H]3c4ccc(O)cc4CC[C@H]3[C@@H]1C[C@@H](O)[C@@H]2O [Estriol]
10 | > 45.8 | > 45.8 | C[C@]12CC[C@@H]3c4ccc(O)cc4CC[C@H]3[C@@H]1CCC2=O [Estrone]
11 | > 45.8 | > 45.8 | CCN(CC)CCOc1ccccc1C(=O)CCc1ccccc1 [Etafenone]
12 | > 45.8 | > 45.8 | C=C(CC)C(=O)c1ccc(OCC(=O)O)c(Cl)c1Cl [Ethacrynic acid]
13 | > 45.8 | > 45.8 | CC[C@@H](CO)NCCN[C@@H](CC)CO [Ethambutol dihydrochloride]
14 | > 45.8 | > 45.8 | CCC1Nc2cc(Cl)c(S(N)(=O)=O)cc2S(=O)(=O)N1 (configuration not stated) [Ethiazide]
15 | > 45.8 | > 45.8 | CCc1cc(C(N)=S)ccn1 [Ethionamide]
16 | > 45.8 | > 45.8 | CCN(CC)C(C)CN1c2ccccc2Sc2ccccc21 (configuration not stated) [Ethopropazine hydrochloride]
17 | > 45.8 | > 45.8 | CCC1(C)CC(=O)NC1=O (configuration not stated) [Ethosuximide]
18 | > 45.8 | > 45.8 | CCN1C(=O)NC(c2ccccc2)C1=O (configuration not stated) [Ethotoin]
19 | > 45.8 | > 45.8 | CCOc1ccc2c(c1)C(C)=CC(C)(C)N2 [Ethoxyquin]
20 | > 45.8 | > 45.8 | CCOc1ccc2nc(S(N)(=O)=O)sc2c1 [Ethoxzolamide]
21 | > 45.8 | > 45.8 | CCOC(=O)c1cccc(N)c1 [Ethyl 3-aminobenzoate methanesulfonic acid salt]
22 | > 45.8 | > 45.8 | CCCCC/C=C\C/C=C\CCCCCCCC(=O)OCC [Ethyl linoleate]
23 | > 45.8 | > 45.8 | CCOC(=O)c1ccccc1O [Ethyl salicylate]
24 | > 45.8 | > 45.8 | CCOC(=O)c1ccc(O)cc1 [Ethylparaben]
25 | > 45.8 | > 45.8 | CCCN(CC)C(CC)C(=O)Nc1c(C)cccc1C (configuration not stated) [Etidocaine]
26 | > 45.8 | > 45.8 | CC(O)(P(=O)(O)O)P(=O)(O)O [Etidronate disodium]
27 | > 45.8 | > 45.8 | CCC(CN)=C(c1ccccc1)c1ccccc1 [Etifelmine hydrochloride]

Row | IC50 cell viability (ICRF193 0 nM) [µM] | IC50 cell viability (ICRF193 200 nM) [µM] | SMILES
28 | > 45.8 | > 45.8 | CCc1cccc(CC)c1NC(=O)CN(CC(=O)O)CC(=O)O [Etifenin]
29 | > 45.8 | > 45.8 | CCc1cccc2c3c([nH]c12)C(CC)(CC(=O)O)OCC3 (configuration not stated) [Etodolac]
30 | > 45.8 | > 45.8 | CCN1C(=O)c2ccccc2C1Nc1ccc(OCCN2CCCCC2)cc1 (configuration not stated) [Etomidoline]
31 | > 45.8 | > 45.8 | C#C[C@]1(O)CC[C@H]2[C@@H]3CCC4=CC(=O)CC[C@@H]4[C@H]3C(=C)C[C@@]21CC [Etonogestrel]
32 | > 45.8 | > 45.8 | Cc1ccc(-c2ncc(Cl)cc2-c2ccc(S(C)(=O)=O)cc2)cn1 [Etoricoxib]
33 | > 45.8 | > 45.8 | CCOC(=O)/C=C(C)/C=C/C=C(C)/C=C/c1c(C)cc(OC)c(C)c1C [Etretinate]
34 | > 45.8 | > 45.8 | C=CCc1ccc(O)c(OC)c1 [Eugenol]
35 | > 45.8 | > 45.8 | CO[C@H]1C[C@@H]2CC[C@@H](C)[C@@](O)(O2)C(=O)C(=O)N2CCCC[C@H]2C(=O)O[C@H]([C@H](C)C[C@@H]2CC[C@@H](OCCO)[C@H](OC)C2)CC(=O)[C@H](C)/C=C(\C)[C@@H](O)[C@@H](OC)C(=O)[C@H](C)C[C@H](C)/C=C/C=C/C=C/1C [Everolimus]
36 | > 45.8 | > 45.8 | CCCCCCOc1ccccc1C(N)=O [Exalamide]
37 | > 45.8 | > 45.8 | C/C(=N\O)C(C)NCC(C)(C)CNC(C)/C(C)=N/O (configuration not stated) [Exametazime]
38 | > 45.8 | > 45.8 | O=C1[C@H](CC[C@H](O)c2ccc(F)cc2)[C@@H](c2ccc(O)cc2)N1c1ccc(F)cc1 [Ezetimibe]
39 | > 45.8 | > 45.8 | CC(C)C(=O)Oc1ccc(CO)cc1[C@H](CCN(C(C)C)C(C)C)c1ccccc1 [FESOTERODINE FUMARATE]
40 | > 45.8 | > 45.8 | CC1(C)OC(=O)C(OCC2CC2)=C1c1ccc(S(C)(=O)=O)cc1 [FIROCOXIB]
41 | > 45.8 | > 45.8 | O=c1[nH]c2ccccc2n1CCN1CCN(c2cccc(C(F)(F)F)c2)CC1 [FLIBANSERIN]
42 | > 45.8 | > 45.8 | CCCCCCCCCC(=O)OCCN1CCN(CC/C=C2\c3ccccc3Sc3ccc(C(F)(F)F)cc32)CC1 [FLUPENTIXOL DECANOATE]
43 | > 45.8 | > 45.8 | C[C@@H]1O[C@@H]1P(=O)(O)O [FOSFOMYCIN]
44 | > 45.8 | > 45.8 | Cc1[nH]cnc1C[C@H]1CCc2c(C)c3ccccc3n2C1=O [Fabesetron]
45 | > 45.8 | > 45.8 | CC(=O)OCC(CCn1cnc2cnc(N)nc21)COC(C)=O [Famciclovir]
46 | > 45.8 | > 45.8 | NC(N)=Nc1nc(CSCC/C(N)=N/S(N)(=O)=O)cs1 [Famotidine]
47 | > 45.8 | > 45.8 | O=C1CC[C@H](C(=O)N2CCCCC2)N1 [Fasoracetam]
48 | > 45.8 | > 45.8 | O=S(=O)(c1cccc2cnccc12)N1CCCNCC1 [Fasudil]
49 | > 45.8 | > 45.8 | NC(=O)c1nc(F)cnc1O [Favipiravir]
50 | > 45.8 | > 45.8 | COCC(=O)Nc1cc(Sc2ccccc2)ccc1N=C(NC(=O)OC)NC(=O)OC [Febantel]
51 | > 45.8 | > 45.8 | Cc1nc(-c2ccc(OCC(C)C)c(C#N)c2)sc1C(=O)O [Febuxostat]
52 | > 45.8 | > 45.8 | NC(=O)OCC(COC(N)=O)c1ccccc1 [Felbamate]
53 | > 45.8 | > 45.8 | NCCCC[C@H](NC(=O)[C@@H]1CCCN1C(=O)[C@@H]1CSSC[C@H](N)C(=O)N[C@@H](Cc2ccccc2)C(=O)N[C@@H](Cc2ccccc2)C(=O)N[C@@H](CCC(N)=O)C(=O)N[C@@H](CC(N)=O)C(=O)N1)C(=O)NCC(N)=O [Felypressin]

Row | SMILES | IC50 cell viability (ICRF193 0 nM) [µM] | IC50 cell viability (ICRF193 200 nM) [µM]
54 | O=c1ccc2cc(O[C@@H]3O[C@H](CO)[C@@H](O)[C@H](O)[C@H]3O)c(O)cc2o1 [Esculin hydrate] | > 45.8 | > 45.8
55 | C[C@]12CC[C@@H]3c4ccc(OC(=O)N(CCCl)CCCl)cc4CC[C@H]3[C@@H]1CC[C@@H]2O [Estramustine] | > 45.8 | > 45.8
56 | CN1CCN(C(=O)O[C@H]2c3nccnc3C(=O)N2c2ccc(Cl)cn2)CC1 [Eszopiclone] | > 45.8 | > 45.8
57 | CCN(C)C(C)C(O)c1ccccc1 (configuration not stated) [Etafedrine hydrochloride] | > 45.8 | > 45.8
58 | C#CC(O)(/C=C/Cl)CC (configuration not stated) [Ethchlorvynol] | > 45.8 | > 45.8
59 | CCOC(=O)C1(c2ccccc2)CCCN(C)CC1 (configuration not stated) [Ethoheptazine hydrochloride] | > 45.8 | > 45.8
60 | CC[C@]1(O)CC[C@H]2[C@@H]3CCC4=CCCC[C@@H]4[C@H]3CC[C@@]21C [Ethylestrenol] | > 45.8 | > 45.8
61 | CCOc1ccc2c3c1O[C@H]1[C@@H](O)C=C[C@H]4[C@@H](C2)N(C)CC[C@@]341 [Ethylmorphine] | > 45.8 | > 45.8
62 | CCNCC(O)c1cccc(O)c1 (configuration not stated) [Etilefrine hydrochloride] | > 45.8 | > 45.8
63 | CCc1cc2c(s1)-n1c(C)nnc1CN=C2c1ccccc1Cl [Etizolam] | > 45.8 | > 45.8
64 | CCOC(=O)c1cncn1[C@H](C)c1ccccc1 [Etomidate] | > 45.8 | > 45.8
65 | C=C1C[C@@H]2[C@H](CC[C@]3(C)C(=O)CC[C@@H]23)[C@@]2(C)C=CC(=O)C=C12 [Exemestane] | > 45.8 | > 45.8
66 | COP(=S)(OC)Oc1ccc(S(=O)(=O)N(C)C)cc1 [Famphur] | > 45.8 | > 45.8
